Values of other authors in patent US9326457B2, “Micro layering pest control solution” (DAIRY SOLUTIONS, INC, priority 2013, dated 2016).

Details: natural pyrethrum, degrades very quickly; short duration application

Pyrethrin
half life: about 30 mins
